Reference: ChEMBL document CHEMBL4680187, “Optimization of EphA2 antagonists based on a lithocholic acid core led to the identification of UniPR505, a new 3α-carbamoyloxy derivative with antiangiogenetic properties” (Eur J Med Chem, 2020)
The source made the active and inactive calls. No cut-off for these calls is given here.

Assays:
Ephrin type-A receptor 2 = Ephrin type-A receptor 2 (Mus musculus, UniProt Q03145); assay: Displacement of biotinylated ephrin-A1-Fc from recombinant mouse c-terminal His6-tagged EphA2 Fc (Ala22 to Ala535 residues) preincubated for 1 hr followed by ephrin-A1-FC addition and measured after 4 hrs by ELISA
Ephrin type-A receptor 2, sequence (Q03145 whole entry): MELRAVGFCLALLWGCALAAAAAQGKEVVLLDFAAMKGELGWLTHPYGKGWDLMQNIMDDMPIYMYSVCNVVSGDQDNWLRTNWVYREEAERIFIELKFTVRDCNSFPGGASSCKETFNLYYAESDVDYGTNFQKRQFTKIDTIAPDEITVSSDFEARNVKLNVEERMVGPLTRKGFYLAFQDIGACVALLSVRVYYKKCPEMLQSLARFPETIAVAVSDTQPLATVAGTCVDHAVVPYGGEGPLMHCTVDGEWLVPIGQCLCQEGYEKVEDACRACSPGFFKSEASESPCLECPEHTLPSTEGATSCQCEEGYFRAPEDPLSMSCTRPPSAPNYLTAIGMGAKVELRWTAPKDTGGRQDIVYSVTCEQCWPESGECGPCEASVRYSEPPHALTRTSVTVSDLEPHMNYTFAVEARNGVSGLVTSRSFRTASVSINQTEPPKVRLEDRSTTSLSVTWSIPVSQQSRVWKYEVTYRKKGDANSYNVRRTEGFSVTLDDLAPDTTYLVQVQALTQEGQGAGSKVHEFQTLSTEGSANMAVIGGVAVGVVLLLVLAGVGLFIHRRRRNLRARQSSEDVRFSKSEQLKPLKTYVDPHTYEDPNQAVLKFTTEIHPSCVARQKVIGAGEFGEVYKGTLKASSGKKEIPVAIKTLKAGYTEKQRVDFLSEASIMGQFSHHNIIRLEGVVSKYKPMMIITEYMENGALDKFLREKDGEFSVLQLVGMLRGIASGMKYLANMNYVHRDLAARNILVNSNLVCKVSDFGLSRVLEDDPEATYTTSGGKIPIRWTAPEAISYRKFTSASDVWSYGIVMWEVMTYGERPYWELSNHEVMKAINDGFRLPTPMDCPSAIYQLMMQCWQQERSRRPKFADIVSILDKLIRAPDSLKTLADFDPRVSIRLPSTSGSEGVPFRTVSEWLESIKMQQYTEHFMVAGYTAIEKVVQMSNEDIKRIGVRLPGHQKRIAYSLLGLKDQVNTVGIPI

PC-3 = assay: Cytotoxicity against human PC3 cells after 2 hrs by LDH assay; format: cell-based; settings: pc-3, 2 h
Ephrin type-A receptor 1 = target: T1, Ephrin type-A receptor 1 (Homo sapiens, UniProt P21709); assay: Displacement of biotinylated ephrin-A1-Fc from human EphA1 Fc preincubated for 1 hr followed by ephrin-A1-FC addition and measured after 4 hrs by ELISA
T1 sequence (P21709 whole entry): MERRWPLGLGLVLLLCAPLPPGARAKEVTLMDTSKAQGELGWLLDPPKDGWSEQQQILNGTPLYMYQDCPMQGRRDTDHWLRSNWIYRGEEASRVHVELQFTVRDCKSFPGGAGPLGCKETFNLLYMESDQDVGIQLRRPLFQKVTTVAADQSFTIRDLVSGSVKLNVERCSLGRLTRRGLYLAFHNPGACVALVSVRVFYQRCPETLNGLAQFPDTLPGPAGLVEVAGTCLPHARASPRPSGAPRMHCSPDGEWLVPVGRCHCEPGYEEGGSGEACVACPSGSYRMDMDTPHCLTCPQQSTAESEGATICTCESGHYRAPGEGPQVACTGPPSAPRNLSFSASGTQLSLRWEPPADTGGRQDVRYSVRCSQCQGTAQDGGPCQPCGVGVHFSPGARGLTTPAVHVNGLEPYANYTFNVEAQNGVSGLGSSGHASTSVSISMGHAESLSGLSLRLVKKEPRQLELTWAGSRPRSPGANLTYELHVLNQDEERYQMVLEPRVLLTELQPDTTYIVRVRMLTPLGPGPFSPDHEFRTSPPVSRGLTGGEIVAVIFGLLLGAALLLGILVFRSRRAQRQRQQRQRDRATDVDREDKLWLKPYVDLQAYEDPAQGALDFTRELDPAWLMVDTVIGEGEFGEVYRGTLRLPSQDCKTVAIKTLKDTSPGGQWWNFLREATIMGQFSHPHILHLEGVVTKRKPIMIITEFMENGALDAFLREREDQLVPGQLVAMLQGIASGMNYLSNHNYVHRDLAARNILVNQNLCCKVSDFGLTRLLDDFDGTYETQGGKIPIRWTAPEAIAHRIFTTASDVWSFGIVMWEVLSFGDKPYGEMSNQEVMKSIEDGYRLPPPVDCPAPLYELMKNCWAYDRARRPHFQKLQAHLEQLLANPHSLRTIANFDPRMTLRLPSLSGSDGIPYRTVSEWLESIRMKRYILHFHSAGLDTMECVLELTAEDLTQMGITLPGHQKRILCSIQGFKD

Ephrin type-A receptor 4 = Ephrin type-A receptor 4 (Mus musculus, UniProt Q03137); assay: Displacement of biotinylated ephrin-A1-Fc from mouse EphA4 Fc preincubated for 1 hr followed by ephrin-A1-FC addition and measured after 4 hrs by ELISA
Ephrin type-A receptor 4, sequence (Q03137 whole entry): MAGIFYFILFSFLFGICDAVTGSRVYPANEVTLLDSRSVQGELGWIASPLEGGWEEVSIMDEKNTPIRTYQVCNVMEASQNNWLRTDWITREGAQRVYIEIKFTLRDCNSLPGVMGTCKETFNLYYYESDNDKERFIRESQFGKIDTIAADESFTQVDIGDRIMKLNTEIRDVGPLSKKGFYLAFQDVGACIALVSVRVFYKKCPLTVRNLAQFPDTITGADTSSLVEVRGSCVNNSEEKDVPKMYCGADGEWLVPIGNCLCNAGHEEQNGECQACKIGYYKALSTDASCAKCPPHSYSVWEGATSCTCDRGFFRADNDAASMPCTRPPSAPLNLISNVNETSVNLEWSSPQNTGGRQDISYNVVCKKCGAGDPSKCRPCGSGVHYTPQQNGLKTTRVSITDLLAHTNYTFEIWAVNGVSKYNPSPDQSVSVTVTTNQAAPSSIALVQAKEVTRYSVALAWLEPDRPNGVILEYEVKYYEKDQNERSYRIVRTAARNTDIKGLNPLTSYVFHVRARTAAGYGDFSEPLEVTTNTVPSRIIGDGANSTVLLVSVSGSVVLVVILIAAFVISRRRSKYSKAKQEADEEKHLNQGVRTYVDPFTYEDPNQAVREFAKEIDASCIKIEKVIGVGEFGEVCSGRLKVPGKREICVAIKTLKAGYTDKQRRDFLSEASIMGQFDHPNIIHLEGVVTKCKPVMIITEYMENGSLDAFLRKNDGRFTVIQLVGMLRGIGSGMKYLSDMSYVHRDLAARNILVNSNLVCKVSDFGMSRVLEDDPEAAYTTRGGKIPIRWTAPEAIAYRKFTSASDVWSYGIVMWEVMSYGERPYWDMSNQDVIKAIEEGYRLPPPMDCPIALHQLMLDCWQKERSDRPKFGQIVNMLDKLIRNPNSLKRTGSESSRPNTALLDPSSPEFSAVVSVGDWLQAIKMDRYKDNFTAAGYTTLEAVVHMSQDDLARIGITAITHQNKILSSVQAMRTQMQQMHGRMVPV

Ephrin type-A receptor 5 = Ephrin type-A receptor 5 (Rattus norvegicus, UniProt P54757); assay: Displacement of biotinylated ephrin-A1-Fc from rat EphA5 Fc preincubated for 1 hr followed by ephrin-A1-FC addition and measured after 4 hrs by ELISA
Ephrin type-A receptor 5, sequence (P54757 whole entry): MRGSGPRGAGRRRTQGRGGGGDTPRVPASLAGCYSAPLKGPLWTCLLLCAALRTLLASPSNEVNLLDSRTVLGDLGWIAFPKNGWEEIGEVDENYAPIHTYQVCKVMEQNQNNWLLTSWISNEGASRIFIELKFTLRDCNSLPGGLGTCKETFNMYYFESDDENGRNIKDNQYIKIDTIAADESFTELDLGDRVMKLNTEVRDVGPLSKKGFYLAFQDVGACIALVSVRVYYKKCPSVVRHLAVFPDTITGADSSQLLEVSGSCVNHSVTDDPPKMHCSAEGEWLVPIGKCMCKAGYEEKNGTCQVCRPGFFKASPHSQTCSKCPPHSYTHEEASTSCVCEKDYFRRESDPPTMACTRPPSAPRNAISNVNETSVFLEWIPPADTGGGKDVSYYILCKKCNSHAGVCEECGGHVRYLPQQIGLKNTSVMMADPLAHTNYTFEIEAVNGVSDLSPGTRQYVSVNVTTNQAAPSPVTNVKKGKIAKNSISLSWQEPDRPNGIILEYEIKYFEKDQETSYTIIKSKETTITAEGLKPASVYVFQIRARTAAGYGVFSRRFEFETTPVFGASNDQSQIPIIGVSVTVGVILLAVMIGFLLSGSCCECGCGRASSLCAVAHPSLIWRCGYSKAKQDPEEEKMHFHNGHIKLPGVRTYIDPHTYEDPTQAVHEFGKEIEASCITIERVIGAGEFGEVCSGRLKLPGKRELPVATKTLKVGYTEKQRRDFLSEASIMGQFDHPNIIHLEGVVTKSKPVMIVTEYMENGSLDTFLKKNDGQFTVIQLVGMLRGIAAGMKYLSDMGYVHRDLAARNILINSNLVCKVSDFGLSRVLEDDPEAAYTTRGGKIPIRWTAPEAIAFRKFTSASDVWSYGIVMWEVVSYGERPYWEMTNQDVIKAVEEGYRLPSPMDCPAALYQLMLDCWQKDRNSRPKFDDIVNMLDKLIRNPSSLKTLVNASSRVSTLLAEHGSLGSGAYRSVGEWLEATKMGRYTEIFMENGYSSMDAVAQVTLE

Ephrin type-A receptor 6 = target: T2, Ephrin type-A receptor 6 (Mus musculus, UniProt Q62413); assay: Displacement of biotinylated ephrin-A1-Fc from mouse EphA6 Fc preincubated for 1 hr followed by ephrin-A1-FC addition and measured after 4 hrs by ELISA
T2 sequence (Q62413 whole entry): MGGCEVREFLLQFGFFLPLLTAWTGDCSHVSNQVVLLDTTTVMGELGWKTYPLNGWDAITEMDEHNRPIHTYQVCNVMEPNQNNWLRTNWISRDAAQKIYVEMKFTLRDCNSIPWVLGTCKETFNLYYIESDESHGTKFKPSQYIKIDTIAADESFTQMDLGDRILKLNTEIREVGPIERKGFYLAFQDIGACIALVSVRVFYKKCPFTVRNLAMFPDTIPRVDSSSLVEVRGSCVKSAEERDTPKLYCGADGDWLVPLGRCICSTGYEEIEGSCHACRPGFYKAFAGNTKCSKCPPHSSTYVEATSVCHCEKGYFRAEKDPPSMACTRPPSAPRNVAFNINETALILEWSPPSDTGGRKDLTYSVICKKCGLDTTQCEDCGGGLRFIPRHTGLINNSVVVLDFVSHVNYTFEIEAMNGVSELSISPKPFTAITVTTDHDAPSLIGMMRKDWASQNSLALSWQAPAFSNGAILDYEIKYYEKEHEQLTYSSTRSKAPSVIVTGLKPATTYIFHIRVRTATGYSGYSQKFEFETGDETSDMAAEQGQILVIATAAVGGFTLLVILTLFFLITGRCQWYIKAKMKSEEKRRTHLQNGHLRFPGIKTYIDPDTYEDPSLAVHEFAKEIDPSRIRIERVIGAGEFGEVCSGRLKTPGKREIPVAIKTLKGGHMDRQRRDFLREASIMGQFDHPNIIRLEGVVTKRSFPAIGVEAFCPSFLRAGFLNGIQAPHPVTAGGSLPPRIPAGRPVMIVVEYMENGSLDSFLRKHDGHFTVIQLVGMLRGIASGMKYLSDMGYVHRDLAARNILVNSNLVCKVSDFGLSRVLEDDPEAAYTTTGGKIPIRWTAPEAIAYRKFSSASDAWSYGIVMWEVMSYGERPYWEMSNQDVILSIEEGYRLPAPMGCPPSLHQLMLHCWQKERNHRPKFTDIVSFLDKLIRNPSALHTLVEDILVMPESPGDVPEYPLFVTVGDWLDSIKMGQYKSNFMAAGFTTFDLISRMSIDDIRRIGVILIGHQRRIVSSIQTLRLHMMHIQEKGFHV

Ephrin type-A receptor 7 = Ephrin type-A receptor 7 (Mus musculus, UniProt Q61772); assay: Displacement of biotinylated ephrin-A1-Fc from mouse EphA7 Fc preincubated for 1 hr followed by ephrin-A1-FC addition and measured after 4 hrs by ELISA
Ephrin type-A receptor 7, sequence (Q61772 whole entry): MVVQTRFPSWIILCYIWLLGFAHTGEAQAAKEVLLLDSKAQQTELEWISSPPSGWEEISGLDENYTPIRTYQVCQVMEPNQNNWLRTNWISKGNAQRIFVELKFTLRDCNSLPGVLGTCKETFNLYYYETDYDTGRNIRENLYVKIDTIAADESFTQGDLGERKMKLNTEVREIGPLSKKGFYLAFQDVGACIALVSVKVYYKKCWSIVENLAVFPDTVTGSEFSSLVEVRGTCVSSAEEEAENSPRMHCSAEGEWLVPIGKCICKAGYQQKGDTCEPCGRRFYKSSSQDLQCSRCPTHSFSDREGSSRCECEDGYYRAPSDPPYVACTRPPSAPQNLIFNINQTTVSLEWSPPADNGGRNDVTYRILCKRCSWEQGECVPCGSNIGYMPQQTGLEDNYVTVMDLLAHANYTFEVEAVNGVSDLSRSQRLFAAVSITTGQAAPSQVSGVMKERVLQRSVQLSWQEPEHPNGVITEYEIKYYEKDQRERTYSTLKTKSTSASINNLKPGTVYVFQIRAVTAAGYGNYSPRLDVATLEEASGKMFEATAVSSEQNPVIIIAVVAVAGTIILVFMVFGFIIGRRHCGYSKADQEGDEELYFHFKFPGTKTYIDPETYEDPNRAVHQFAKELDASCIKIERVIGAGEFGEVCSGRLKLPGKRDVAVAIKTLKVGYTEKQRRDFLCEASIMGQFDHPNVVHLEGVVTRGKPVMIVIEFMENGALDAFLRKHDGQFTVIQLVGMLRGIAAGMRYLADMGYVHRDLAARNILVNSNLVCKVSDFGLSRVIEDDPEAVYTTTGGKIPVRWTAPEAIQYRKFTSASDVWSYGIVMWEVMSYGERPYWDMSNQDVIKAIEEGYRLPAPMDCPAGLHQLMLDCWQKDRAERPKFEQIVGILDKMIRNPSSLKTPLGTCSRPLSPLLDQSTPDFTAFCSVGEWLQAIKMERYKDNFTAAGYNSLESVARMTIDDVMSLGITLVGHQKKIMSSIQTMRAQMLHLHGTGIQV

Chorioallantoic membrane = assay: Antiangiogenic activity in Leghorn chicken fertilized egg chorioallantoic membrane assessed as reduction in VEGF stimulated neovascularization at 10 uM measured after 3 days by CAM assay; format: functional, tissue-based; settings: Gallus gallus, time 3.0 day

IC50 (Ephrin type-A receptor 2): 0.95 µM | IC50 (Ephrin type-A receptor 1): > 30 µM | IC50 (Ephrin type-A receptor 4): 6.4 µM | IC50 (Ephrin type-A receptor 5): 4.4 µM | IC50 (Ephrin type-A receptor 6): 18 µM | IC50 (Ephrin type-A receptor 7): > 30 µM
Compound: CCNC(=O)O[C@@H]1CC[C@@]2(C)[C@H](CC[C@@H]3[C@@H]2CC[C@]2(C)[C@@H]([C@H](C)CCC(=O)N[C@H](CC(=O)O)Cc4c[nH]c5ccccc45)CC[C@@H]32)C1
Activity (PC-3): Non-Toxic | Activity (Chorioallantoic membrane): Active
